Test results: patent publication US20050112555A1, “Cytidine deaminase activators, deoxycytidine deaminase activators, Vif antagonists, and methods of screening for molecules thereof” (priority 2003, published 2005)

Test system: intracellular CEM15
Assay: Western blot of CEM15 abundance after co-expression of CEM15 and Vif in 293T cells
Assay type: cell-based, human
Conditions: within 36-48 h post-transfection
Description: CEM15 abundance can be quantified by western blotting as described above. Small molecules that bind to any of the aforementioned peptides can be evaluated for their ability to protect or restore CEM15 abundance using the aforementioned western blotting systems of whole cell extracts of cells that have been transfected with CEM15 and Vif wherein these proteins are co-expressed in 293T cells (conditions that result in CEM15 destruction) and evaluated (by western blotting of cell extracts) for the ability of VDA peptides of varying size and sequence to restore CEM15 abundance. Co-expression of CEM15 and Vif by transfection in 293T cells results ˜99% ablation of intracellular CEM15 within 36-48 h post-transfection. […] All peptides are tested according to this schedule. Expression of CEM15 and Vif are driven from the CMV promoter of pcDNA3 plasmids.

Vif: HIV-1 viral infectivity factor, SEQ ID NO: 7; induces degradation of CEM15
ablation of intracellular CEM15: ~99%
